Measured values: patent US20200054651A1, “COMPOSITIONS AND METHODS FOR MODULATING PPP2R1A” (The Regents of the University of California, priority 2017, published 2020)

What was measured:
C377 of PPP2R1A = biological target: T1, C377 of PPP2R1A (Homo sapiens, UniProt P30153); test: Competitive isoTOP-ABPP in 231MFP proteomes in vitro; format: binding
T1 construct: pre-incubating withaferin A (10 μM) for 30 min in 231MFP breast cancer cell proteomes; endogenous in cells; host or cells: 231MFP breast cancer cells (MDA-MB-231 derived)
Method: IsoTOP-ABPP studies were performed using the methods described in “Nature 534(7608), 570-574 (2016)” by Backus K. M., et al. and “Nature 468(7325), 790-795 (2010)” by Weerapana E., et al. Proteome samples diluted in PBS were treated with Withaferin A or vehicle for 30 minutes at 37° C. Then, IAyne (iodoacetamide-alkyne) labeling was performed for 1 hour at room temperature. CuAAC was used by sequential addition of tris(2-carboxyethyl)phosphine (1 mM), tris[(1-benzyl-1H-1,2,3-triazol-4-yl)methyl]amine (34 μM), copper (II) sulfate (1 mM), and biotin-linker-azide where the linker was functionalized with a TEV protease recognition sequence along with an isotopically light or heavy valine for treatment of control or treated proteome, respectively. After click reactions, proteomes were precipitated by centrifugation at 6500×g, washed in ice-cold methanol, combined in a 1:1 control/treated ratio, washed again, then denatured and re-solubilized by heating in 1.2% SDS/PBS to 80° C. for 5 minutes. Insoluble components were precipitated by centrifugation at 6500×g and soluble proteome was diluted in 0.2% SDS/PBS (5 ml). Labeled proteins were bound to avidin-agarose beads (170 μl re-suspended beads/sample) while rotating overnight at 4° C. Bead-linked proteins were enriched by washing three times each in PBS and water, then re-suspended in urea/PBS (6 M), reduced in TCEP (1 mM), alkylated with iodoacetamide (18 mM), then washed and re-suspended in urea/PBS (2 M), and finally trypsinized overnight with 0.5 μg/μl sequencing grade trypsin. Tryptic peptides were eluted off. Beads were washed in PBS (3 times) and water (3 times), washed in TEV buffer solution (water, TEV buffer, 100 μM dithiothreitol), and re-suspended in buffer with Ac-TEV protease and then incubated overnight. Peptides were diluted in water, acidified with formic acid (1.2 M), and prepared for analysis.
Peptides from all proteomic experiments were pressure-loaded onto an Agilent 600 series RP-HPLC system equipped with a capillary tubing (250 mm) packed with Aqua C18 reverse-phase resin (4 cm). The system was previously equilibrated with a gradient (0% B to 100% B over 10 minutes, 100% B for 5 minutes, then 0% B for 5 minutes; buffer A: 95:5 water:acetonitrile, 0.1% formic acid; buffer B: 80:20 acetonitrile:water, 0.1% formic acid). The samples were then attached using a MicroTee PEEK 360 μm fitting to a laser pulled column (13 cm) packed with Aqua C18 reverse-phase resin (10 cm) and strong-cation exchange resin (3 cm) for isoTOP-ABPP studies. Samples were analyzed using an Q Exactive Plus mass spectrometer using a 5-step Multidimensional Protein Identification Technology (MudPIT) program. […]

[1] = biological target: T2, PP2A complex with wild-type PPP2R1A, PPP2R2A and PPP2CA (Homo sapiens, UniProt P30153); test: In vitro PP2A activity assay (phosphate release from phosphopeptide); format: biochemical; conditions: 30 min prior to assay
T2 construct: PPP2CA protein TP301334) TP301334; host or cells: HEK293T
Method: Wild-type mammalian expression plasmids with C-terminal FLAG tag were purchased from Origene (PPP2R1A: RC200056; PPP2R2A, MR207137). The PPP2R1A C337A mutant was generated with Agilent QuickChange Lightning site-directed mutagenesis kit according to manufacturer's instructions. […] Immediately prior to transfection, media was replaced with DMEM+5% FBS. Each plate was transfected with 20 μg of overexpression plasmid with 100 μg PEI (Sigma). After 48 hrs cells were collected in TBS, lysed by sonication, and batch bound with anti-DYKDDDDK (SEQ ID NO: 1) resin (GenScript) for 1 hr. Lysate and resin was loaded onto a gravity flow column and washed, followed by elution with 250 ng/uL 3×FLAG peptide (ApexBio A6001). Purity and concentration were verified by PAGE, UV/Spectroscopy, and BCA assay.
Activity was assayed by addition of 60 μM Thr phosphopeptide (KRpTIRR, Millipore, 12-219) at 37° C. for 25 min, and free phosphate was detected colorimetrically by malachite green kit (Cayman 10009325) per manufacturer's instructions.

siPPP2R1A 231MFP cells = test: Proliferation of siPPP2R1A knockdown 231MFP cells; format: cell-based; conditions: 48 h after 48 h siRNA transfection
Excerpt: PPP2R1A was transiently knocked down with siRNA using previously described methods (Benjamin et al., 2014). siRNA for a scrambled RNA oligonucleotide control and pooled RNA oligonucleotides targeting PPP2R1A were purchased from Dharmacon.

T1 sequence (P30153 whole entry): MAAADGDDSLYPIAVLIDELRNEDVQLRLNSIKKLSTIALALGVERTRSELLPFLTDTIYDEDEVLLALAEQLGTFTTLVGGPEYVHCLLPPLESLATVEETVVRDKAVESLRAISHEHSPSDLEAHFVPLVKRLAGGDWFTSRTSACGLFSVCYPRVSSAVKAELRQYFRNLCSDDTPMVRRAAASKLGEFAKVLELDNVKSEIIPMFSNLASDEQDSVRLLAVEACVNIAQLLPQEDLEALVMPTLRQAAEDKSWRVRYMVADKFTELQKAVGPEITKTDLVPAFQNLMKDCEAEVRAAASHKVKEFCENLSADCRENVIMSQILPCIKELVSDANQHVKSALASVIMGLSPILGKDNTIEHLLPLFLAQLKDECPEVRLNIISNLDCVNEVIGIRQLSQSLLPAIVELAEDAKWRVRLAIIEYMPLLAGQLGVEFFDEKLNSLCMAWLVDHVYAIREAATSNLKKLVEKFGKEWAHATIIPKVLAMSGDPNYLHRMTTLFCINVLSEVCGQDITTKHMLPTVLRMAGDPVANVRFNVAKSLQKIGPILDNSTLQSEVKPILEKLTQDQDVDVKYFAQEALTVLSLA
T2 sequence (P30153 whole entry): as above
T2 sequence (Q6P1F6 whole entry partner): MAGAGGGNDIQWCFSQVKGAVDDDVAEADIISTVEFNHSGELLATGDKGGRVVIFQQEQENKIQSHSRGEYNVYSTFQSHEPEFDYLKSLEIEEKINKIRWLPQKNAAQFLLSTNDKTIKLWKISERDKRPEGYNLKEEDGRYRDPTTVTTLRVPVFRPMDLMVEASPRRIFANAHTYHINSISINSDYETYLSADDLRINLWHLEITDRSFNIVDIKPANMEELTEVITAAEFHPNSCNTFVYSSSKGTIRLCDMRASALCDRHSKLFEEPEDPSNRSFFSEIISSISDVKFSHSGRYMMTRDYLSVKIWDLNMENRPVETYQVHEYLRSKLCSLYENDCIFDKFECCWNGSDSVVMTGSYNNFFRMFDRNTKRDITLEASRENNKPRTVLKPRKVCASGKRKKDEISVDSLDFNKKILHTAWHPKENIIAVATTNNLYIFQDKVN
T2 sequence (P67775 whole entry partner): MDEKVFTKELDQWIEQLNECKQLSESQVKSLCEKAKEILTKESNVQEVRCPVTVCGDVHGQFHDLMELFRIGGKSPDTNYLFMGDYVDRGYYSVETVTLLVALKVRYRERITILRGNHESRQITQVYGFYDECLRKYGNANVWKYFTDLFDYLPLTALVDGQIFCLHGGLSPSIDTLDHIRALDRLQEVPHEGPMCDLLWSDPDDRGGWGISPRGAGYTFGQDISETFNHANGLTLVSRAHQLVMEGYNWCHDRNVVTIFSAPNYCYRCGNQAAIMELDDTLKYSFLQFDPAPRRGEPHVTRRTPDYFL

| Compound | isotopically light to heavy ratio, C377 of PPP2R1A (C377 of PPP2R1A; 10 μM, 30 min pre-incubation, IAyne 100 μM) | PP2A activity, wild-type PPP2R1A ([1]; 10 μM) | anti-proliferative effect in siPPP2R1A versus siControl cells (siPPP2R1A 231MFP cells; 10 μM) | isotopically light to heavy ratio, C377 of PPP2R1A (C377 of PPP2R1A; 100 μM, 30 min pre-treatment) | PP2A activity, wild-type PPP2R1A ([1]; 100 μM) | anti-proliferative effect in siPPP2R1A versus siControl cells (siPPP2R1A 231MFP cells; 100 μM) |
| --- | --- | --- | --- | --- | --- | --- |
| CC1=C(CO)C(=O)O[C@@H]([C@@H](C)[C@H]2CC[C@H]3[C@@H]4C[C@H]5O[C@]56[C@@H](O)C=CC(=O)[C@]6(C)[C@H]4CC[C@]23C)C1 [withaferin A, reference compound] | > 5 | activated PP2A activity | significantly attenuated the anti-proliferative effects |  |  |  |
| O=C(CCl)N(Cc1ccccc1)c1ccc2c(c1)OCCO2 [JNS 1-40, N-benzyl-2-chloro-N-(2,3-dihydrobenzo[b][1,4]dioxin-6-yl)acetamide] |  |  |  | > 5 | activated PP2A activity | attenuated |
| O=C(CCl)Nc1ccc2c(c1)OCCO2 [DKM 2-90, 2-Chloro-N-(2,3-dihydrobenzo[β][1,4]dioxin-6-yl)acetamide] |  |  |  | quite selectively targeted C377 of PPP2R1A |  | attenuation |
